Holding throughout (assay type): cell-based, human
Data set [1] has as its system bioprinted full thickness skin tissue. Nature of the data set: Lactate dehydrogenase (LDH) activity in media of bioprinted skin tissue, skin irritation test. From the text:
Bio-ink was generated by a cellular mixture of 100% primary adult human dermal fibroblasts (HDFa) in 8% gelatin (NOVOGEL 2.0) at a concentration of 100 million cells per milliliter. The cell: gelatin ratio was altered to reduce the cellular density of the dermal sheet to better mimic dermal tissue in native skin. Three-dimensional bio-ink constructs were printed by continuous deposition using the NOVOGEN BIOPRINTER platform in a 4 mm×4 mm×0.5 mm base to create a dermal structure resembling a sheet. […] The transwell printing surface contained a polytetrafluoroethylene (PTFE) membrane coated with equimolar mixture of types I and III collagen (bovine) with pores 3 μm in size. Epidermal cell paste containing a mixture of 100% primary neonatal human epidermal keratinocytes (HEKn) was then printed on top of the dermal bio-ink. Cell paste was measured post print at 87.1% viable by trypan exclusion assay. Cell numbers in the deposited epidermal layer was estimated at 60,000 cells by cell counting on a Cell-O-Meter. Immediately following the print, constructs were placed at 4° C. for 10 minutes. Cold media was then added to the outer well of the transwell in a volume of 3 ml. The media used for subsequent growth and maintenance of the skin tissue was a 50:50 ratio of HDFa: HEKn media. The initial volume added was sufficient to submerge the structure. All subsequent media changes used warmed media (37° C.) added to the outer well of the transwell and not to the inner basket. Media was changed 48 hours later and reduced to a volume of 1.5 ml per well to bring the structure to an air-liquid interface (ALI). Media and subsequently changed 48 hours after that (day 4) at a volume of 1.5 ml. […] IL-1α production (R&D Systems) was analyzed in a colorimetric assays per manufacturer's protocol. Media was analyzed for lactate dehydrogenase as a marker for cytotoxicity. IL-1α production was assessed as a complementary endpoint to classic cytotoxicity testing to improve predictability of irritants. […] Viability was measured as fluorescence in the media by conversion of resazurin to resorufin. […]

Data set [2] has the same test system. Nature of the data set: IL-1α production in media of bioprinted skin tissue (colorimetric assay), skin irritation test. From the text: Bio-ink was generated by a cellular mixture of 100% primary adult human dermal fibroblasts (HDFa) in 8% gelatin (NOVOGEL 2.0) at a concentration of 100 million cells per milliliter. The cell: gelatin ratio was altered to reduce the cellular density of the dermal sheet to better mimic dermal tissue in native skin. Three-dimensional bio-ink constructs were printed by continuous deposition using the NOVOGEN BIOPRINTER platform in a 4 mm×4 mm×0.5 mm base to create a dermal structure resembling a sheet. […] The transwell printing surface contained a polytetrafluoroethylene (PTFE) membrane coated with equimolar mixture of types I and III collagen (bovine) with pores 3 μm in size. Epidermal cell paste containing a mixture of 100% primary neonatal human epidermal keratinocytes (HEKn) was then printed on top of the dermal bio-ink. Cell paste was measured post print at 87.1% viable by trypan exclusion assay. Cell numbers in the deposited epidermal layer was estimated at 60,000 cells by cell counting on a Cell-O-Meter. Immediately following the print, constructs were placed at 4° C. for 10 minutes. Cold media was then added to the outer well of the transwell in a volume of 3 ml. The media used for subsequent growth and maintenance of the skin tissue was a 50:50 ratio of HDFa: HEKn media. The initial volume added was sufficient to submerge the structure. All subsequent media changes used warmed media (37° C.) added to the outer well of the transwell and not to the inner basket. Media was changed 48 hours later and reduced to a volume of 1.5 ml per well to bring the structure to an air-liquid interface (ALI). Media and subsequently changed 48 hours after that (day 4) at a volume of 1.5 ml. On day 5, media was changed and further reduced to 1 ml per well and subsequently changed daily. On day 10, skin tissues were subject to a skin irritation test method using 1% TRITON X-100. 1% TRITON X-100 is a known irritant and reference chemical currently used in other 3D skin models. Methods were based on OECD guidelines 439 and 431 for applying human skin models to in vitro skin irritation or corrosion, respectively. On day 10, conditioned media was saved (designated time=0) and 1 ml of fresh media was added to the outer well of the transwell. The printed skin tissue was then treated with 20 μl of PBS as a negative control or with 20 μl of 1% TRITON X-100 as a positive control and known irritant. Test substances were pipetted manually to the apical surface of the tissue. TRITON X-100 was diluted to a 1% aqueous solution in deionized water and sterile filtered through a 20 micron filter before use. […] Media was saved (designated time=1 hour). Samples were then washed extensively by PBS rinsing. […] The media was then changed at 24 hours and at 48 hours post treatment. Total media collected included time points=−48, 0, 1, 24, and 48 hours. IL-1α production (R&D Systems) was analyzed in a colorimetric assays per manufacturer's protocol. Media was analyzed for lactate dehydrogenase as a marker for cytotoxicity. IL-1α production was assessed as a complementary endpoint to classic cytotoxicity testing to improve predictability of irritants. Keratinocytes normally produce and release inflammatory cytokine IL-1α in response to chemical or physical stress. […] Viability was measured as fluorescence in the media by conversion of resazurin to resorufin. […]

Data set [3] shares this test system. Nature of the data set: Viability of bioprinted skin tissue by alamar blue assay, skin irritation test. The source says:
Bio-ink was generated by a cellular mixture of 100% primary adult human dermal fibroblasts (HDFa) in 8% gelatin (NOVOGEL 2.0) at a concentration of 100 million cells per milliliter. The cell: gelatin ratio was altered to reduce the cellular density of the dermal sheet to better mimic dermal tissue in native skin. Three-dimensional bio-ink constructs were printed by continuous deposition using the NOVOGEN BIOPRINTER platform in a 4 mm×4 mm×0.5 mm base to create a dermal structure resembling a sheet. […] The transwell printing surface contained a polytetrafluoroethylene (PTFE) membrane coated with equimolar mixture of types I and III collagen (bovine) with pores 3 μm in size. Epidermal cell paste containing a mixture of 100% primary neonatal human epidermal keratinocytes (HEKn) was then printed on top of the dermal bio-ink. Cell paste was measured post print at 87.1% viable by trypan exclusion assay. Cell numbers in the deposited epidermal layer was estimated at 60,000 cells by cell counting on a Cell-O-Meter. Immediately following the print, constructs were placed at 4° C. for 10 minutes. Cold media was then added to the outer well of the transwell in a volume of 3 ml. The media used for subsequent growth and maintenance of the skin tissue was a 50:50 ratio of HDFa: HEKn media. The initial volume added was sufficient to submerge the structure. All subsequent media changes used warmed media (37° C.) added to the outer well of the transwell and not to the inner basket. Media was changed 48 hours later and reduced to a volume of 1.5 ml per well to bring the structure to an air-liquid interface (ALI). Media and subsequently changed 48 hours after that (day 4) at a volume of 1.5 ml. On day 5, media was changed and further reduced to 1 ml per well and subsequently changed daily. On day 10, skin tissues were subject to a skin irritation test method using 1% TRITON X-100. 1% TRITON X-100 is a known irritant and reference chemical currently used in other 3D skin models. Methods were based on OECD guidelines 439 and 431 for applying human skin models to in vitro skin irritation or corrosion, respectively. On day 10, conditioned media was saved (designated time=0) and 1 ml of fresh media was added to the outer well of the transwell. The printed skin tissue was then treated with 20 μl of PBS as a negative control or with 20 μl of 1% TRITON X-100 as a positive control and known irritant. […] IL-1α production (R&D Systems) was analyzed in a colorimetric assays per manufacturer's protocol. Media was analyzed for lactate dehydrogenase as a marker for cytotoxicity. IL-1α production was assessed as a complementary endpoint to classic cytotoxicity testing to improve predictability of irritants. […] Viability was measured as fluorescence in the media by conversion of resazurin to resorufin. […]
(Alamar Blue is a resazurin reagent that responds to reducing activity.)

In the case of `CCCCCCCCCCCCOS(=O)(=O)[O-].[Na+]` [SDS], in data set [1], the “LDH activity higher than PBS” value is “about 1.7 fold”. Moreover, the IL-1α production result in data set [2] is recorded as “much stronger response”. For the same compound, in data set [3], the “irritancy under these testing conditions, 5% SDS versus 1% TRITON X-100” value is given as “much stronger irritant” and the “viability compared to the PBS control (alamar blue assay)” value amounted to 2.45%.

Source of the values: patent publication US11529436B2, “Engineered three-dimensional skin tissues, arrays thereof, and methods of making the same” (Organovo, Inc., priority 2014, dated 2022).
